{"source": "patent US6569638B1", "about": "“Method for screening compounds for the treatment of neoplasia” (Cell Pathways, Inc, priority 2000, dated 2003)", "key": {"[1]": {"system": "NCI-H82", "assay": "Neutral red growth inhibition", "assay_type": "cell-based, human", "details": "NCI-H82, Lung, free base", "experimental": "(§1) Compound B's activity is not confined to activity against colon cancer cell lines or animal models of colon cancer. It has a broad range of anti-neoplastic effects in various neoplastic cell lines. Various types of human cancer cell lines were propagated under sterile conditions in RPMI 1640 medium with 10% fetal bovine serum, 2 mM L-glutamine and sodium bicarbonate. To determine growth inhibitory effects of Compound B, cells were seeded in 96-well plates at a density of 1000 cells per well. Twenty-four hours after plating, the cells were dosed with various concentrations of the free base of Compound B solubilized in DMSO (final concentration 0.1%). The effect of the drug on tumor cell growth was determined using the neutral red cytotoxicity assay following five days of continuous treatment. Neutral red is a dye that is selectively taken up by viable cells by an ATP-dependent transport mechanism."}, "[2]": {"system": "NCI-H460", "assay": "Neutral red growth inhibition", "assay_type": "cell-based, human", "details": "NCI-H460, Lung, free base", "experimental": "as §1"}, "[3]": {"system": "HT-29", "assay": "Neutral red growth inhibition", "assay_type": "cell-based, human", "details": "HT-29, Colon, free base", "experimental": "as §1"}, "[4]": {"system": "MDA-MB-231", "assay": "Neutral red growth inhibition", "assay_type": "cell-based, human", "details": "MDA-MB-231, Breast, free base", "experimental": "as §1"}, "[5]": {"system": "CCRF-CEM", "assay": "Neutral red growth inhibition", "assay_type": "cell-based, human", "details": "Leukemia, HCl salt", "experimental": "as §1"}, "[6]": {"system": "NCI-H322M", "assay": "Neutral red growth inhibition", "assay_type": "cell-based, human", "details": "Lung, free base", "experimental": "as §1"}, "[7]": {"system": "NCI-H23", "assay": "Neutral red growth inhibition", "assay_type": "cell-based, human", "details": "NCI-H23, Lung, free base", "experimental": "as §1"}, "[8]": {"system": "PC-3", "assay": "Neutral red growth inhibition", "assay_type": "cell-based, human", "details": "PC-3, Prostate, free base", "experimental": "as §1"}, "[9]": {"system": "SW-620", "assay": "Neutral red growth inhibition", "assay_type": "cell-based, human", "details": "SW-620, Colon, free base", "experimental": "as §1"}, "[10]": {"system": "DU145", "assay": "Neutral red growth inhibition", "assay_type": "cell-based, human", "details": "DU145, Prostate, free base", "experimental": "as §1"}, "[11]": {"system": "UISO-BCA-1", "assay": "Neutral red growth inhibition", "assay_type": "cell-based, human", "details": "UISO-BCA-1, Breast, free base", "experimental": "as §1"}, "[12]": {"system": "Colo 205", "assay": "Neutral red growth inhibition", "assay_type": "cell-based, human", "details": "Colo 205, Colon, free base", "experimental": "as §1"}, "[13]": {"system": "MDA-MB-435", "assay": "Neutral red growth inhibition", "assay_type": "cell-based, human", "details": "MDA-MB-435, Breast, free base", "experimental": "as §1"}, "[14]": {"system": "OVCAR", "assay": "Neutral red growth inhibition", "assay_type": "cell-based, human", "details": "Ovary, HCl salt", "experimental": "as §1"}, "[15]": {"system": "HCT-15", "assay": "Neutral red growth inhibition", "assay_type": "cell-based, human", "details": "HCT-15, Colon, free base", "experimental": "as §1"}, "[16]": {"system": "SW-480 colon adenocarcinoma cells", "assay": "DNA fragmentation (Cell Death Detection ELISA)", "assay_type": "cell-based, human", "experimental": "Samples are then analyzed."}, "[17]": {"system": "adenomatous polyposis coli polyps", "assay": "Clinical prevention trial of polyp formation in APC patients", "assay_type": "in vivo, human", "source_text": "The first clinical trial involved patients with APC using exisulind. In that study, each patient had already had his/her colon removed, except for a small section of colon adjacent the rectum (where the small intestine was attached) to preserve rectal function. However, such a patient commonly forms polyps in the small remaining colonic section, which polyps require periodic removal (e.g., by electrocautery).\nThat trial where exisulind was selected was a prevention trial designed to evaluate the anti-neoplastic characteristics of the drug by comparing the cumulative number of new polyps formed over twelve months by the drug and placebo groups. Eligible patients were those who form between 9 and 44 polyps per year. Patients were fully ablated (had all polyps removed) at the start of the study, at the end of 6 months and at the end of 12 months. The study enrolled thirty-four eligible patients. […] Based on the median number of polyps produced in the first six months of the study, patients treated with exisulind developed approximately one-third the number of polyps as patients treated with placebo (median values 9 polyps/year and 26 polyps/year, respectively; p=0.013). […]"}, "[18]": {"assay": "Safety evaluation in exisulind clinical trials", "assay_type": "in vivo", "experimental": "In these exisulind trials and several others involving the drug in other indications, safety was evaluated by monitoring adverse events (AEs), clinical laboratory tests (hematology, serum chemistry, and urinalysis), vital signs (blood pressure, pulse rate, respiratory rate, temperature, and weight), physical examination, and upper endoscopy."}, "[19]": {"system": "PKG in HCT116 colon cancer cells", "assay": "PKG assay of drug-treated cell lysates", "assay_type": "cell-based, human", "details": "HCT116 cells (β-catenin mutation, no APC mutation)", "source_text": "To test the effect of cGMP-specific PDE inhibition on neoplasia containing the β-catenin mutation, HCT116 colon cancer cells were employed. HCT116 is known to contain the β-catenin mutation, but is known not to contain the APC mutation.\nThe same procedure is used to grow the HCT116 cells as is used in the SW480 procedure described above. In this experiment, only exisulind and controls were used."}}, "data": [{"compound": "CC1=C(CC(=O)NCc2ccccc2)c2cc(F)ccc2/C1=C\\c1ccncc1.Cl", "note": "[Compound B, (Z)-5-fluoro-2-methyl-(4-pyridylidene)-3-(N-benzyl)indenylacetamide hydrochloride]", "values": [{"measurement": "GI50", "setting": "[1]", "result": 1.7, "unit": "µM"}, {"measurement": "GI90", "setting": "[1]", "result": 5.8, "unit": "µM"}, {"measurement": "GI50", "setting": "[2]", "result": 1.9, "unit": "µM"}, {"measurement": "GI90", "setting": "[2]", "result": 30.0, "unit": "µM"}, {"measurement": "GI50", "setting": "[3]", "result": 2.1, "unit": "µM"}, {"measurement": "GI90", "setting": "[3]", "result": 8.0, "unit": "µM"}, {"measurement": "GI50", "setting": "[4]", "result": 1.8, "unit": "µM"}, {"measurement": "GI90", "setting": "[4]", "result": 77.6, "unit": "µM"}, {"measurement": "GI50", "setting": "[5]", "result": 1.4, "unit": "µM"}, {"measurement": "GI50", "setting": "[6]", "result": 2.1, "unit": "µM"}, {"measurement": "GI90", "setting": "[6]", "result": 13.2, "unit": "µM"}, {"measurement": "GI50", "setting": "[7]", "result": 1.7, "unit": "µM"}, {"measurement": "GI90", "setting": "[7]", "result": 2.5, "unit": "µM"}, {"measurement": "GI50", "setting": "[8]", "result": 1.7, "unit": "µM"}, {"measurement": "GI90", "setting": "[8]", "result": 82.5, "unit": "µM"}, {"measurement": "GI50", "setting": "[9]", "result": 1.7, "unit": "µM"}, {"measurement": "GI90", "setting": "[9]", "result": 2.5, "unit": "µM"}, {"measurement": "GI50", "setting": "[10]", "result": 1.6, "unit": "µM"}, {"measurement": "GI90", "setting": "[10]", "result": 2.8, "unit": "µM"}, {"measurement": "GI50", "setting": "[11]", "result": 1.5, "unit": "µM"}, {"measurement": "GI90", "setting": "[11]", "result": 4.7, "unit": "µM"}, {"measurement": "GI50", "setting": "[12]", "result": 1.6, "unit": "µM"}, {"measurement": "GI90", "setting": "[12]", "result": 2.4, "unit": "µM"}, {"measurement": "GI50", "setting": "[13]", "result": 1.6, "unit": "µM"}, {"measurement": "GI90", "setting": "[13]", "result": 2.3, "unit": "µM"}, {"measurement": "GI50", "setting": "[14]", "result": 1.2, "unit": "µM"}, {"measurement": "GI50", "setting": "[15]", "result": 1.7, "unit": "µM"}, {"measurement": "GI90", "setting": "[15]", "result": 3.0, "unit": "µM"}, {"measurement": "EC50", "setting": "[16]", "result": 15, "unit": "µM"}]}, {"compound": "CC1=C(CC(=O)O)c2cc(F)ccc2/C1=C\\c1ccc(S(C)(=O)=O)cc1", "note": "[exisulind, 5-fluoro-2-methyl-1-(p-methylsulfonylbenzylidene)-3-indenylacetic acid]", "values": [{"measurement": "median number of polyps", "setting": "[17]; entire 12 months of the study", "result": 18, "unit": "polyps/year"}, {"measurement": "median number of polyps", "setting": "[17]; first six months of the study", "result": 9, "unit": "polyps/year"}, {"measurement": "safety findings in clinical trials", "setting": "[18]; human, in vivo", "result": "No outstanding safety issues have been demonstrated"}, {"measurement": "maximum tolerated dose (MTD)", "setting": "[18]; patients with intact colons", "result": 400, "unit": "mg"}, {"measurement": "maximum tolerated dose (MTD)", "setting": "[18]; patients with subtotal colectomy", "result": 600, "unit": "mg"}, {"measurement": "maximum tolerated dose (MTD)", "setting": "[18]; pediatric patients", "result": 350, "unit": "mg"}, {"measurement": "PKG activity relative to control", "setting": "[19]", "result": "phosphorylated to a greater extent than the corresponding controls"}]}]}
